In patent publication US20220411419A1, “SMALL MOLECULE MODULATORS OF MHC-I” (RetroVirox, Inc., priority 2018, published 2022):
Where two headings read alike, the source gives them in different places.

Key:
[1] = in vitro; conditions: human, uninfected SupT1 cells
[2] = test system: MHC-I surface expression in uninfected SupT1 cells; test: Increase of MHC-I surface expression in uninfected SupT1 cells (mean-MHC-I EC50, FIG. 6A); type: cell-based; conditions: Homo sapiens, SUP-T1, 24 h with compound, read-out: EC50 for MHC-I increased surface expression
Protocol: In some instances, the effect of small molecules in modulation of surface MHC-I was monitored in uninfected (rather than HIV-infected) Sup-T1 cells (FIG. 6A). In these experiments uninfected SupT1 cells were incubated with the compounds for 24 h and then the increase in MHC-I surface expression was monitored by staining cells with the biotinylated HLA-A2/28 antibody (One Lambda, clone BIH0037), washed and then incubated with streptavidin conjugated with APC (Streptavidin APC, EBiosciences, 17-4317) to reveal the anti-HLA-A2 bound antibody. After washing the cells again they were fixed with 0.5% paraformaldehyde and submitted to flow cytometry to determine the levels of MHC-I surface expression (APC fluorescence) in live cells (as estimated by FS/SS in these cells). […] From these assays “mean-MHC-I” EC50 values were generated to indicate the concentration of compound that augments the mean surface levels of MHC-I to 50% of the highest levels accomplished by the compound, as compared to cells treated with vehicle alone. […] Therefore, both assays: inhibition of MHC-I downmodulation in HIV infected SupT1 cells, or increase in surface MHC-I in uninfected SupT1 cells, were indistinctively used to monitor the potency of the compounds to modulate surface expression of MHC-I in SupT1 cells.
Table 7 show the activity of selected compounds utilizing the assay in which the increase of MHC-I surface expression in uninfected SupT1 cells was evaluated, as shown in FIG. 6A. The EC50 for MHC-I increased surface expression was determined using the methods described in Example 2 and illustrated in FIG. 6A.

[3] = test system: downmodulation of MHC-I molecules expressed on the surface of HIV infected SupT1 cells; test: cells; conditions: for activity at 100 µM: Human immunodeficiency virus 1, SUP-T1, read-out: R1 @ 100 μM (R1 value for MHC-I downmodulation as % of the vehicle control)
[4] = test system: surface MHC-I in uninfected SupT1 cells (GFP-negative); test: Surface MHC-I in GFP-negative (uninfected) SupT1 cells of cultures treated with HIV-1 (FIG. 4); type: cell-based; conditions: dose-dependent
Protocol: FIG. 4 represents the levels of expression of surface MHC-I in uninfected SupT1 cells (GFP-negative) incubated with vehicle alone (0.1% DMSO) or with compounds #40, #53, #54, #56 or #100 at different concentrations. Values are shown as the percentage of the MHC-I expression observed in cells treated with 0.1% DMSO alone. All samples were incubated with HIV-1 reporter virus (NL4.3-GFP) except those shown as ΔNef, which are shown for reference and were treated with nef-defective virus.
To determine whether the inhibitors of MHC-I downmodulation are specific for HIV infection a study to determine whether the compounds also interfere with expression of MHC-I in uninfected cells was undertaken. The effect of the same compounds was evaluated in SupT-1 cells treated with HIV-1 as shown before, but this time the levels of expression of MHC-I were obtained in GFP-negative cells (FIG. 4). […] The increase was dose-dependent and compounds elevated MHC-I levels by as much as 70% (as compared to cells treated with vehicle alone).

[5] = test system: downmodulation of MHC-I molecules expressed on the surface of HIV infected SupT1 cells; conditions: 100 nM compound
[6] = Human immunodeficiency virus 1, SUP-T1, read-out: EC50 for inhibition of MHC-I downmodulation utilizing the R1 parameter
[7] = Human immunodeficiency virus 1, SUP-T1, 24 h, read-out: EC50 for R1 (inhibition of MHC-I downmodulation)

Compound: CC1(C)Cc2cccc(OC(Cc3ccccc3)C(=O)Nc3nc4c(s3)CCCC4)c2O1 (racemic) [Compound 171, (±)-2-((2,2-Dimethyl-2,3-dihydrobenzofuran-7-yl)oxy)-3-phenyl-N-(4,5,6,7-tetrahydrobenzo[d]thiazol-2-yl)propanamide]
- CC50 [1]: > 125000 nM
- EC50 [2]: 6200 nM

Compound: Cc1nc(NC(=O)C(Cc2ccccc2)Oc2cccc3c2OC(C)(C)C3)ccc1C1CC1 (racemic) [Compound 172, (±)-N-(5-Cyclopropyl-6-methylpyridin-2-yl)-2-((2,2-dimethyl-2,3-dihydrobenzofuran-7-yl)oxy)-3-phenylpropanamide]
- CC50 [1]: > 125000 nM
- EC50 [2]: 8400 nM

Compound: Cc1ccc(CN(C(=O)COc2cccc3c2OC(C)(C)C3)c2nc3c(s2)CCCC3)nc1 [Compound 40, 2-((2,2-Dimethyl-2,3-dihydrobenzofuran-7-yl)oxy)-N-((5-methylpyridin-2-yl)methyl)-N-(4,5,6,7-tetrahydrobenzo[d]thiazol-2-yl)acetamide]
- EC50 [3, 6]: 8 nM
- surface levels of MHC-I in uninfected cells [4]: increased the surface levels of MHC-I in uninfected cells
- viability of the cell culture (estimated by FS/SS) ([5]; FIG. 2G): nor the viability of the cell culture (estimated by FS/SS) was affected
- R4 values lower than in cells treated with DMSO only ([5]; SupT1 cells infected with wild-type virus): approximately 10 fold
- CC50 at 48 h [1]: > 100000 nM

Compound: CN(C(=O)COc1cccc2c1OC(C)(C)C2)c1nc2c(s1)CCCC2 [Compound 53, 2-((2,2-Dimethyl-2,3-dihydrobenzofuran-7-yl)oxy)-N-methyl-N-(4,5,6,7-tetrahydrobenzo[d]thiazol-2-yl)acetamide]
- EC50 [3, 6]: 3 nM
- surface levels of MHC-I in uninfected cells [4]: increased the surface levels of MHC-I in uninfected cells
- CC50 [1]: > 125000 nM
- CC50 at 48 h [1]: > 125000 nM
- EC50 [2]: 12 nM

Compound: CCN(C(=O)COc1cccc2c1OC(C)(C)C2)c1nc2c(s1)CCCC2 [Compound 54, 2-((2,2-Dimethyl-2,3-dihydrobenzofuran-7-yl)oxy)-N-ethyl-N-(4,5,6,7-tetrahydrobenzo[d]thiazol-2-yl)acetamide]
- EC50 [3, 6]: 8 nM
- surface levels of MHC-I in uninfected cells [4]: increased the surface levels of MHC-I in uninfected cells
- CC50 [1]: > 125000 nM
- CC50 at 48 h [1]: > 125000 nM
- EC50 [2]: 9 nM

Compound: C=CCN(C(=O)COc1cccc2c1OC(C)(C)C2)c1nc2c(s1)CCCC2 [Compound 56, N-Allyl-2-((2,2-dimethyl-2,3-dihydrobenzofuran-7-yl)oxy)-N-(4,5,6,7-tetrahydrobenzo[d]thiazol-2-yl)acetamide]
- EC50 [3, 7]: ~1 nM
- EC50 [3, 6]: 1 nM
- surface levels of MHC-I in uninfected cells [4]: increased the surface levels of MHC-I in uninfected cells
- CC50 [1]: > 125000 nM
- CC50 at 48 h [1]: > 125000 nM
- EC50 [2]: 6 nM

Compound: CC1(C)Cc2cccc(OCC(=O)Nc3nc4c(C#N)cccc4s3)c2O1 [Compound 100, N-(4-cyanobenzo[d]thiazol-2-yl)-2-((2,2-dimethyl-2,3-dihydrobenzofuran-7-yl)oxy)acetamide]
- EC50 [3, 7]: 70 nM
- EC50 [3, 6]: 70 nM
- surface levels of MHC-I in uninfected cells [4]: increased the surface levels of MHC-I in uninfected cells
- CC50 at 48 h [1]: 100 nM

Compound: CC1(C)Cc2cccc(OCC(=O)N(CC(F)(F)F)c3nc4c(s3)CCCC4)c2O1 [Compound 164, 2-((2,2-Dimethyl-2,3-dihydrobenzofuran-7-yl)oxy)-N-(4,5,6,7-tetrahydrobenzo[d]thiazol-2-yl)-N-(2,2,2-trifluoroethyl)acetamide]
- CC50 [1]: > 125000 nM
- EC50 [2]: 26 nM

Compound: O=C(COc1cccc2[nH]ccc12)N(CC(F)(F)F)c1nc2c(s1)CCCC2 [Compound 165, 2-((1H-Indol-4-yl)oxy)-N-(4,5,6,7-tetrahydrobenzo[d]thiazol-2-yl)-N-(2,2,2-trifluoroethyl)acetamide]
- CC50 [1]: > 125000 nM
- EC50 [2]: 1000 nM

Compound: CC1(C)Cc2cccc(OCC(=O)N(CC(F)(F)F)c3nc4c(s3)COCC4)c2O1 [Compound 166, N-(6,7-Dihydro-4H-pyrano[4,3-d]thiazol-2-yl)-2-((2,2-dimethyl-2,3-dihydrobenzofuran-7-yl)oxy)-N-(2,2,2-trifluoroethyl)acetamide]
- CC50 [1]: > 125000 nM
- EC50 [2]: 200 nM

Compound: Cc1nc(NC(=O)COc2cccc3c2OC(C)(C)C3)ccc1C1CC1 [Compound 167, N-(5-Cyclopropyl-6-methylpyridin-2-yl)-2-((2,2-dimethyl-2,3-dihydrobenzofuran-7-yl)oxy)acetamide]
- CC50 [1]: > 125000 nM
- EC50 [2]: 470 nM

Compound: Cc1nc(NC(=O)COc2cccc3c2OC(C)(C)C3)ccc1C#N [Compound 168, N-(5-Cyano-6-methylpyridin-2-yl)-2-((2,2-dimethyl-2,3-dihydrobenzofuran-7-yl)oxy)acetamide]
- CC50 [1]: > 125000 nM
- EC50 [2]: > 25000 nM

Compound: Cc1cc(C)nc(NC(=O)COc2cccc3c2OC(C)(C)C3)c1 [Compound 169, 2-((2,2-Dimethyl-2,3-dihydrobenzofuran-7-yl)oxy)-N-(4,6-dimethylpyridin-2-yl)acetamide]
- CC50 [1]: > 125000 nM
- EC50 [2]: > 25000 nM

Compound: Cc1cccnc1CN(C(=O)COc1cccc2c1OC(C)(C)C2)c1ccc(C2CC2)c(C)n1 [Compound 170, N-(5-Cyclopropyl-6-methylpyridin-2-yl)-2-((2,2-dimethyl-2,3-dihydrobenzofuran-7-yl)oxy)-N-((3-methylpyridin-2-yl)methyl)acetamide]
- CC50 [1]: > 125000 nM
- EC50 [2]: 1000 nM

Compound: CC1(C)Cc2cc(C(F)(F)F)cc(OCC(=O)Nc3nc4c(s3)CCCC4)c2O1 [Compound 173, 2-((2,2-Dimethyl-5-(trifluoromethyl)-2,3-dihydrobenzofuran-7-yl)oxy)-N-(4,5,6,7-tetrahydrobenzo[d]thiazol-2-yl)acetamide]
- CC50 [1]: > 125000 nM
- EC50 [2]: 2500 nM

Compound: Cc1nc(NC(=O)COc2cc(C(F)(F)F)cc3c2OC(C)(C)C3)ccc1C1CC1 [Compound 174, N-(5-Cyclopropyl-6-methylpyridin-2-yl)-2-((2,2-dimethyl-5-(trifluoromethyl)-2,3-dihydrobenzofuran-7-yl)oxy)acetamide]
- CC50 [1]: > 125000 nM
- EC50 [2]: 2500 nM

Compound: COc1ccccc1OCC(=O)Nc1nc(C)cs1 [Compound 190, 2-(2-Methoxyphenoxy)-N-(4-methylthiazol-2-yl)acetamide]
- EC50 [3, 6]: > 25000 nM
- activity at 100 µM [3]: 34%
- CC50 [1]: > 100000 nM
- CC50 at 48 h [1]: > 100000 nM

Compound: COc1ccccc1OCC(=O)Nc1nc2cc(C)c(C)cc2s1 [Compound 191, N-(5,6-Dimethylbenzo[d]thiazol-2-yl)-2-(2-methoxyphenoxy)acetamide]
- EC50 [3, 6]: > 25000 nM
- activity at 100 µM [3]: 62%
- CC50 [1]: > 100000 nM
- CC50 at 48 h [1]: > 100000 nM

Compound: COc1ccccc1OCC(=O)Nc1nc2c(F)cccc2s1 [Compound 192, N-(4-Fluorobenzo[d]thiazol-2-yl)-2-(2-methoxyphenoxy)acetamide]
- EC50 [3, 6]: 1800 nM
- CC50 at 48 h [1]: > 10000 nM

Compound: COc1ccccc1OCC(=O)Nc1nc2c(Br)cccc2s1 [Compound 193, N-(4-Bromobenzo[d]thiazol-2-yl)-2-(2-methoxyphenoxy)acetamide]
- EC50 [3, 6]: > 25000 nM
- activity at 100 µM [3]: 58%
- CC50 [1]: > 90000 nM
- CC50 at 48 h [1]: > 90000 nM

Compound: COc1ccccc1CCC(=O)Nc1nc2c(s1)CCCC2 [Compound 194, 3-(2-Methoxyphenyl)-N-(4,5,6,7-tetrahydrobenzo[d]thiazol-2-yl) propanamide]
- EC50 [3, 6]: 1700 nM
- CC50 at 48 h [1]: 125000 nM

Compound: CC1(C)Cc2cccc(OCC(=O)Nc3nc4c(s3)CCCC4)c2O1 [Compound 195, 2-((2,2-Dimethyl-2,3-dihydrobenzofuran-7-yl)oxy)-N-(4,5,6,7-tetrahydrobenzo[d]thiazol-2-yl)acetamide]
- EC50 [3, 6]: 53 nM
- CC50 at 48 h [1]: > 125000 nM

Compound: COc1ccccc1OCC(=O)Nc1nc2cc(F)ccc2s1 [Compound 196, N-(5-Fluorobenzo[d]thiazol-2-yl)-2-(2-methoxyphenoxy)acetamide]
- EC50 [3, 6]: > 25000 nM
- activity at 100 µM [3]: 31%
- CC50 [1]: > 100000 nM
- CC50 at 48 h [1]: > 100000 nM
